PMC6901289 (Journal of medicinal chemistry, 2019)
Entries after “also recorded” stand apart in the source; their conditions may differ.

Legend:
[1] = system: HCT116 cells; assay: Soft agar colony formation assay; type: cell-based, human; conditions: at a concentration of 10 μM and greater
[2] = Mouse body weight in xenograft study; type: in vivo, NSG mice; conditions: treatment groups of xenograft study, intraperitoneal
[3] = system: HCT116 xenograft; assay: HCT116 xenograft mice study; type: in vivo, NSG mice; conditions: 25 mg/kg intraperitoneal, every day
[4] = biological target: T1, SIRT2 (Homo sapiens, UniProt Q8IXJ6); assay: LC-MS detection of covalent intermediate with NAD+ in the presence of SIRT2; type: biochemical; conditions: incubated with an excess of SIRT2 and NAD+
T1 sequence (Q8IXJ6 1-389): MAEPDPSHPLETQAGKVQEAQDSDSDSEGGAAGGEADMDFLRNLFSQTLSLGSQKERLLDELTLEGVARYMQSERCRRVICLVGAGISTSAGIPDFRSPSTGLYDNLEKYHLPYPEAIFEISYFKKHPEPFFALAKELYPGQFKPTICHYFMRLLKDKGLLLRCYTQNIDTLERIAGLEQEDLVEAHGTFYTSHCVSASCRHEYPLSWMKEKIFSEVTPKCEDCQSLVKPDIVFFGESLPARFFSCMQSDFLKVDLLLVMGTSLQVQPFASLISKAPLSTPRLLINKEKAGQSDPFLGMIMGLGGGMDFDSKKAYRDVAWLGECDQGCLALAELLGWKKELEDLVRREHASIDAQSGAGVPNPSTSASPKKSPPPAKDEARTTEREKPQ

[5] = system: α-tubulin acetylation in HCT116 cells; assay: α-tubulin acetylation by immunofluorescence; type: cell-based, human; conditions: six hours
[6] = system: p53 acetylation in HCT116 cells; assay: p53 K382 acetylation by western blot; conditions: for acetyl p53 (K382) levels: HCT116, 25 μM inhibitor with 400 nM TSA, 6 hours; for dose dependence of acetyl p53 levels: HCT116, 10–50 μM inhibitor with Trichostatin A
[7] = biological target: T1, SIRT2; assay: Enzyme IC50 assay, acetyl H3K9 peptide, liquid chromatography; type: biochemical; conditions: relative selectivity for SIRT2 over SIRT1, Table 1
[8] = biological target: T2, SIRT1 (Homo sapiens, UniProt Q96EB6); assay: as above; type: biochemical; conditions: in vitro
T2 sequence (Q96EB6 1-747): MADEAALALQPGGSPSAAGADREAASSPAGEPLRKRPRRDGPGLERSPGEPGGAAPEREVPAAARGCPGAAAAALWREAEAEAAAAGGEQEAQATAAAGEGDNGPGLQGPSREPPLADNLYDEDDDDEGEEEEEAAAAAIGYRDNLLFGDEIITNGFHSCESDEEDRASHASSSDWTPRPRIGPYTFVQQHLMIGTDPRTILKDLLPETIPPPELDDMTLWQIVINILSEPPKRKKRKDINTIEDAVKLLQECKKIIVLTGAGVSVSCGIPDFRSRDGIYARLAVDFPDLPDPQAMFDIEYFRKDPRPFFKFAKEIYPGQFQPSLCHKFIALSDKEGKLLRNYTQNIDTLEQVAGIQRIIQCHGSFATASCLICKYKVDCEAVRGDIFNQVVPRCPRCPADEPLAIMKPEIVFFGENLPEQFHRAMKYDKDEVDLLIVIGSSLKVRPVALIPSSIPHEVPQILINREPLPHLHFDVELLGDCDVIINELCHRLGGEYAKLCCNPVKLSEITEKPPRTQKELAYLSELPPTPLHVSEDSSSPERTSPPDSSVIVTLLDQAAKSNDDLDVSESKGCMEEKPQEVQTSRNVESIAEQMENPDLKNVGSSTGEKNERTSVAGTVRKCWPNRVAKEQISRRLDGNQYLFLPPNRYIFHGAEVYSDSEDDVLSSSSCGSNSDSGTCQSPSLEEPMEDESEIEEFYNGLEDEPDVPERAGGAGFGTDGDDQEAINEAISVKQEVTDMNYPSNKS

Compound	growth of HCT116 cells in soft agar [1]	mouse body weight loss [2]	tumor growth by volume and weight [3]	covalent inhibitor-ADP-ribose intermediate by LC-MS [4]	α-tubulin acetylation ([5]; HCT116, 25 μM inhibitor)	α-tubulin acetylation ([5]; HCT116, 50 μM inhibitor)	acetyl p53 (K382) levels [6]	dose dependence of acetyl p53 levels [6]	SIRT2/SIRT1 Selectivity [7]	inhibition of SIRT1 deacetylase activity (in words) [8]
CCCCCCCCNC(=S)NCCCC[C@H](NC(=O)OCc1ccccc1)C(=O)Nc1ccccc1 [AF8, benzyl (S)-(6-(3-octylthioureido)-1-oxo-1-(phenylamino)hexan-2-yl)carbamate]	completely inhibited	No significant weight loss	slightly decreased tumor growth by volume and weight but did not result in a statistically significant difference	detected	extensive α-tubulin hyperacetylation; also recorded: increased α-tubulin acetylation	extensive α-tubulin hyperacetylation; also recorded: also increased α-tubulin acetylation	did not increase the levels of acetyl p53; also recorded: did not noticeably increase p53 acetylation	did not increase acetyl p53 levels in a dose dependent manner		
CCCCCCCCCCNC(=S)NCCCC[C@H](NC(=O)OCc1ccccc1)C(=O)Nc1cccc(O)c1 [Compound C10, Benzyl (S)-(6-(3-decylthioureido)-1-((3-hydroxyphenyl)amino)-1-oxohexan-2-yl)carbamate]					more strongly increased α-tubulin acetylation; also recorded: increased α-tubulin acetylation	increased α-tubulin acetylation	moderately increased the acetylation of p53; also recorded: moderately increased acetyl p53 levels	dose dependent increase in acetyl p53 levels; also recorded: dose dependent increase of acetyl p53		
CCCNC(=S)NCCCC[C@H](NC(=O)OCc1ccccc1)C(=O)Nc1cccc(O)c1 [Compound C3, Benzyl (S)-(1-((3-hydroxyphenyl)amino)-1-oxo-6-(3-propylthioureido)hexan-2-yl)carbamate]					did not increase the acetylation of α-tubulin	did not increase the acetylation of α-tubulin	did not increase the acetylation of p53			
CCCCCCCCCCCCCC(=S)NCCCC[C@H](NC(=O)OCc1ccccc1)C(=O)Nc1ccccc1 [TM, reference compound]					increased α-tubulin acetylation	also increased α-tubulin acetylation	did not increase the levels of acetyl p53			
CCCCCCCCCCCCNC(=S)NCCCC[C@H](NC(=O)OCc1ccccc1)C(=O)Nc1ccccc1 [AF12, Benzyl (S)-(6-(3-dodecylthioureido)-1-oxo-1-(phenylamino)hexan-2-yl)carbamate]									>1000	no inhibition
CCCCCNC(=S)NCCCC[C@H](NC(=O)OCc1ccccc1)C(=O)Nc1cccc(O)c1 [Compound C5, Benzyl (S)-(1-((3-hydroxyphenyl)amino)-1-oxo-6-(3-pentylthioureido)hexan-2-yl)carbamate]					slightly increased α-tubulin acetylation	increased α-tubulin acetylation; also recorded: more robustly increased acetylation	moderately increased the acetylation of p53; also recorded: moderately increased acetyl p53 levels			
CCCCCCCCCCNC(=S)NCCCC[C@H](NC(=O)OCc1ccccc1)C(=O)Nc1ccccc1 [AF10, Benzyl (S)-(6-(3-decylthioureido)-1-oxo-1-(phenylamino)hexan-2-yl)carbamate]	completely inhibited	No significant weight loss			extensive α-tubulin hyperacetylation; also recorded: increased α-tubulin acetylation	extensive α-tubulin hyperacetylation; also recorded: also increased α-tubulin acetylation	did not increase the levels of acetyl p53; also recorded: did not noticeably increase p53 acetylation	very slight increase in acetyl p53	>1000	no inhibition
